The values that follow come from ChEMBL document CHEMBL1152336, “Characterization of the tautomycetin biosynthetic gene cluster from Streptomyces griseochromogenes provides new insight into dialkylmaleic anhydride biosynthesis” (J Nat Prod, 2009).

Experiment [1] can be described thus: Selectivity ratio of IC50 for PP2A over IC50 for PP1.
Experiment [2] is described as follows: Inhibition of PP1.
A short description of experiment [3]: Inhibition of PP2A.

`C=C/C(=C/C(=O)C[C@H](C)C[C@@H](C)CC[C@H](O)[C@H](C)C(=O)C[C@@H](O)[C@H](C)[C@@H](C)OC(=O)C[C@@H](C)C1=C(C)C(=O)OC1=O)CC` [TAUTOMYCETIN]: the Ratio IC50 in experiment [1] was 40.
Turning to `CO[C@H]([C@H](O)CC(=O)[C@@H](C)[C@@H](O)CC[C@@H](C)[C@@H]1O[C@]2(CC[C@@H](C)[C@H](CC[C@H](C)C(C)=O)O2)CC[C@@H]1C)[C@H](OC(=O)C[C@@H](O)C1=C(C)C(=O)OC1=O)C(C)C` [TAUTOMYCIN], the IC50 in experiment [2] and in experiment [3] was 22 nM throughout.
